Test results reported in PubChem BioAssay (NCI).
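Assay format: 96-well plates, 48-hour exposure. GI50: concentration for 50% inhibition of growth. TGI denotes the concentration required for complete inhibition of growth.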

Experiments:
Test in all cases: inhibition of tumour cell growth, NCI panel, 48 h
786-0 renal = test system: 786-0 renal
A498 renal = test system: A498 renal
A549 NSCLC = test system: A549 NSCLC
ACHN renal = test system: ACHN renal
BT-549 breast = test system: BT-549 breast
CAKI-1 renal = test system: CAKI-1 renal
CCRF-CEM leukemia = test system: CCRF-CEM leukemia
DU-145 prostate = test system: DU-145 prostate
EKVX NSCLC = test system: EKVX NSCLC
HCC-2998 colon = test system: HCC-2998 colon
HCT-15 colon = test system: HCT-15 colon
HL-60(TB) leukemia = test system: HL-60(TB) leukemia
HOP-62 NSCLC = test system: HOP-62 NSCLC
HOP-92 NSCLC = test system: HOP-92 NSCLC
HS 578T breast = test system: HS 578T breast
HT29 colon = test system: HT29 colon
IGROV1 ovarian = test system: IGROV1 ovarian
K-562 leukemia = test system: K-562 leukemia
KM12 colon = test system: KM12 colon
M14 melanoma = test system: M14 melanoma
MALME-3M melanoma = test system: MALME-3M melanoma
MCF7 breast = test system: MCF7 breast
MDA-MB-231 breast = test system: MDA-MB-231 breast
MDA-MB-435 = test system: MDA-MB-435
MOLT-4 leukemia = test system: MOLT-4 leukemia
NCI-H226 lung = test system: NCI-H226 lung
NCI-H460 lung = test system: NCI-H460 lung
OVCAR-3 ovarian = test system: OVCAR-3 ovarian
OVCAR-4 ovarian = test system: OVCAR-4 ovarian
OVCAR-5 ovarian = test system: OVCAR-5 ovarian
OVCAR-8 ovarian = test system: OVCAR-8 ovarian
PC-3 prostate = test system: PC-3 prostate
RPMI-8226 leukemia = test system: RPMI-8226 leukemia
RXF 393 renal = test system: RXF 393 renal
SF-268 CNS = test system: SF-268 CNS
SF-295 CNS = test system: SF-295 CNS
SF-539 CNS = test system: SF-539 CNS
SK-MEL-2 melanoma = test system: SK-MEL-2 melanoma
SK-MEL-28 melanoma = test system: SK-MEL-28 melanoma
SK-MEL-5 melanoma = test system: SK-MEL-5 melanoma
SK-OV-3 ovarian = test system: SK-OV-3 ovarian
SN12C renal = test system: SN12C renal
SNB-19 CNS = test system: SNB-19 CNS
SNB-75 CNS = test system: SNB-75 CNS
SR leukemia = test system: SR leukemia
SW-620 colon = test system: SW-620 colon
T-47D breast = test system: T-47D breast
TK-10 renal = test system: TK-10 renal
U251 CNS = test system: U251 CNS
UACC-257 melanoma = test system: UACC-257 melanoma
UACC-62 melanoma = test system: UACC-62 melanoma
UO-31 renal = test system: UO-31 renal

Structure (SMILES): CC1(C)[C@@H](O)CC[C@]2(C)[C@H]3CC[C@@H]4[C@H]5[C@H](C(=O)/C=C\c6ccccn6)CC[C@]5(O)CC[C@@]4(C)[C@]3(C)CC[C@@H]12
- GI50 (786-0 renal): 2.23 µM
- TGI (786-0 renal): 4.73 µM
- GI50 (A498 renal): 1.66 µM
- TGI (A498 renal): 4.33 µM
- GI50 (A549 NSCLC): 2.77 µM
- TGI (A549 NSCLC): 9.37 µM
- GI50 (ACHN renal): 2.33 µM
- TGI (ACHN renal): 6.28 µM
- GI50 (BT-549 breast): 1.96 µM
- TGI (BT-549 breast): 3.57 µM
- GI50 (CAKI-1 renal): 2.02 µM
- TGI (CAKI-1 renal): 8.4 µM
- GI50 (CCRF-CEM leukemia): 2.06 µM
- TGI (CCRF-CEM leukemia): 8.51 µM
- GI50 (DU-145 prostate): 1.75 µM
- TGI (DU-145 prostate): 3.52 µM
- GI50 (EKVX NSCLC): 2.62 µM
- TGI (EKVX NSCLC): 13.3 µM
- GI50 (HCC-2998 colon): 1.94 µM
- TGI (HCC-2998 colon): 3.52 µM
- GI50 (HCT-15 colon): 1.9 µM
- TGI (HCT-15 colon): 5.52 µM
- GI50 (HL-60(TB) leukemia): 1.81 µM
- TGI (HL-60(TB) leukemia): 5.74 µM
- GI50 (HOP-62 NSCLC): 1.8 µM
- TGI (HOP-62 NSCLC): 4.99 µM
- GI50 (HOP-92 NSCLC): 1.34 µM
- TGI (HOP-92 NSCLC): 3.74 µM
- GI50 (HS 578T breast): 6.84 µM
- TGI (HS 578T breast): > 100 µM
- GI50 (HT29 colon): 3.33 µM
- TGI (HT29 colon): > 100 µM
- GI50 (IGROV1 ovarian): 1.9 µM
- TGI (IGROV1 ovarian): 4.07 µM
- GI50 (K-562 leukemia): 2.25 µM
- TGI (K-562 leukemia): > 100 µM
- GI50 (KM12 colon): 1.85 µM
- TGI (KM12 colon): 3.96 µM
- GI50 (M14 melanoma): 2.26 µM
- TGI (M14 melanoma): 5.87 µM
- GI50 (MALME-3M melanoma): 2.16 µM
- TGI (MALME-3M melanoma): 4.78 µM
- GI50 (MCF7 breast): 0.768 µM
- TGI (MCF7 breast): 4.54 µM
- GI50 (MDA-MB-231 breast): 3.04 µM
- TGI (MDA-MB-231 breast): > 100 µM
- GI50 (MDA-MB-435): 1.76 µM
- TGI (MDA-MB-435): 3.75 µM
- GI50 (MOLT-4 leukemia): 2.39 µM
- TGI (MOLT-4 leukemia): > 100 µM
- GI50 (NCI-H226 lung): 3.05 µM
- TGI (NCI-H226 lung): 34.5 µM
- GI50 (NCI-H460 lung): 1.9 µM
- TGI (NCI-H460 lung): 4.83 µM
- GI50 (OVCAR-3 ovarian): 1.87 µM
- TGI (OVCAR-3 ovarian): 4.89 µM
- GI50 (OVCAR-4 ovarian): 3.92 µM
- TGI (OVCAR-4 ovarian): 46.4 µM
- GI50 (OVCAR-5 ovarian): 2.89 µM
- TGI (OVCAR-5 ovarian): 7.92 µM
- GI50 (OVCAR-8 ovarian): 3.37 µM
- TGI (OVCAR-8 ovarian): > 100 µM
- GI50 (PC-3 prostate): 2.1 µM
- TGI (PC-3 prostate): 6.24 µM
- GI50 (RPMI-8226 leukemia): 1.76 µM
- TGI (RPMI-8226 leukemia): 5.35 µM
- GI50 (RXF 393 renal): 1.74 µM
- TGI (RXF 393 renal): 3.15 µM
- GI50 (SF-268 CNS): 2.38 µM
- TGI (SF-268 CNS): 8.44 µM
- GI50 (SF-295 CNS): 2.61 µM
- TGI (SF-295 CNS): 8.55 µM
- GI50 (SF-539 CNS): 2.34 µM
- TGI (SF-539 CNS): 6.34 µM
- GI50 (SK-MEL-2 melanoma): 2.61 µM
- TGI (SK-MEL-2 melanoma): 7.18 µM
- GI50 (SK-MEL-28 melanoma): 2.04 µM
- TGI (SK-MEL-28 melanoma): 4.13 µM
- GI50 (SK-MEL-5 melanoma): 1.63 µM
- TGI (SK-MEL-5 melanoma): 3.05 µM
- GI50 (SK-OV-3 ovarian): 5.35 µM
- TGI (SK-OV-3 ovarian): 30.7 µM
- GI50 (SN12C renal): 3.08 µM
- TGI (SN12C renal): > 100 µM
- GI50 (SNB-19 CNS): 2.77 µM
- TGI (SNB-19 CNS): 10.8 µM
- GI50 (SNB-75 CNS): 7.59 µM
- TGI (SNB-75 CNS): > 100 µM
- GI50 (SR leukemia): 1.71 µM
- TGI (SR leukemia): 14.5 µM
- GI50 (SW-620 colon): 1.93 µM
- TGI (SW-620 colon): 4.85 µM
- GI50 (T-47D breast): 1.52 µM
- TGI (T-47D breast): 8.62 µM
- GI50 (TK-10 renal): 3.23 µM
- TGI (TK-10 renal): 9.31 µM
- GI50 (U251 CNS): 1.61 µM
- TGI (U251 CNS): 3.1 µM
- GI50 (UACC-257 melanoma): 3.25 µM
- TGI (UACC-257 melanoma): 39.2 µM
- GI50 (UACC-62 melanoma): 1.74 µM
- TGI (UACC-62 melanoma): 3.95 µM
- GI50 (UO-31 renal): 1.6 µM
- TGI (UO-31 renal): 3.23 µM
